Assay: Clinical use as antihypertensive agent in humans (literature reports)
Type: in vivo, human
Details: clinical daily dose ranges 150 to 500 mg. versus 1.5 to 15 mg.

## COc1cc2c(N)nc(N3CCN(C(=O)OCC(C)(C)O)CC3)nc2c(OC)c1OC [Trimazosin]
  weaker than prazosin at the lower end of the clinical daily dosage range: 100 fold

Reference: patent publication US4001237A, “Oxazole, isoxazole, thiazole and isothiazole amides” (priority 1976, dated 1977)
